Laboratory results from patent publication US9169496B2, “Method for the enzymatic production of butadiene” (Scientist of Fortune, S.A., priority 2011, dated 2015).

System: 4-methyl-5-(2-hydroxyethyl)thiazole kinase from E. coli
Assay: Kinetic parameters of crotyl alcohol phosphorylation (spectrophotometric assay of Example 2)
Type: biochemical
Settings: crotyl alcohol phosphorylation by purified E. coli kinase
Protocol: The release of ADP that is associated with crotyl alcohol phosphorylation was quantified using the pyruvate kinase/lactate dehydrogenase coupled assay (FIG. 5). The purified 4-methyl-5-(2-hydroxyethyl)thiazole kinases from Escherichia coli (SEQ ID NO:2), Bacillus subtilis (SEQ ID NO:1), Rhizobium leguminosarum (SEQ ID NO:3) were evaluated for their ability to phosphorylate crotyl alcohol releasing ADP. The studied enzymatic reaction was carried out under the following conditions at 37° C.: • 50 mM Tris-HCl pH 7.5 • 10 mM MgCl2 • 100 mM KCl • 5 mM ATP • 0.4 mM NADH • 1 mM Phosphoenolpyruvate • 3 U/ml Lactate dehydrogenase • 1.5 U/ml Pyruvate kinase • 50 mM crotyl alcohol, mixture cis and trans • The pH was adjusted to 7.5
Each assay was started by addition of a particular enzyme at a concentration 0.05 mg/ml and the disappearance of NADH was monitored by following the absorbance at 340 nm.
Kinetic parameters of crotyl alcohol phosphorylation were determined using the spectrophotometric assay described in Example 2.

| SMILES | Km [mM] |
| --- | --- |
| C/C=C/CO [Trans crotyl alcohol] | 30 |
| C/C=C\CO [Cis crotyl alcohol] | 13.6 |
